{
  "source": "patent US20070213382A1",
  "about": "“2-METHYLTHIAZOLIDINE-2, 4-DICARBOXYLIC ACID-CONTAINING COMBINATION PREPARATIONS” (priority 2004, published 2007)",
  "key": {"[1]": {"system": "Bladder carcinoma cells EJ", "assay": "in vitro cytotoxicity assay, crystal violet, 72 h (Example 1)", "assay_type": "cell-based, human", "settings": "for IC50: Homo sapiens", "experimental": "(§1) Examinations for the in vitro cytoxicity of 2-methylthiazolidine-2,4-dicarboxylic acid and N-acetylcysteine in human tumor cell lines were carried out.\n(§2) The cells were kept in culturing medium RPMI 1640 (Sigma, Munich) and in addition 10% FCS (Sigma, Munich) in 50 ml cell culture vials (Greiner) at 37° C. as well as under a 5% of CO2 atmosphere.\n(§3) Monolayers of the tumor cells were prepared by dispersion of 2×10^6 tumor cells in 96-hole-plates (Greiner). After an incubation time of 24 hours the medium was replaced by a medium containing the test compounds. All assays were carried out four times.\n(§4) After 72 h the quantity of living cells was determined by means of coloring with crystal violet.\n(§5) For that purpose, the medium was removed from each hole in the plate, the plates were washed twice with PBS, the cells were fixed by means of PBS, containing 1% of paraformaldehyde and dried for 15 minutes at room temperature. Subsequently, the cells were rinsed with PBS and dried at room temperature.\n(§6) Thereafter, the cells were colored with 1% crystal violet solution in water for two minutes, and after washing with water the optical density was determined by means of an ELISA spectrometer at 595 nm. The average values and standard deviations for the average values were determined for all four parallel tests."}, "[2]": {"system": "Neuroglioma cells H4", "assay": "in vitro cytotoxicity assay, crystal violet, 72 h (Example 1)", "assay_type": "cell-based", "settings": "human gliomas cells H4, 72 h; for cytotoxic effect: N-acetylcysteine up to comparatively high concentrations", "experimental": "as §1, §2, §3, §4, §5, §6"}},
  "note": "Like-named read-outs stand apart in the source and are kept apart here.",
  "data": [
    {"smiles": "CC1(C(=O)O)NC(C(=O)O)CS1", "note": "(stereo not shown) [2-methylthiazolidine-2,4-dicarboxylic acid]", "values": [
      {"measurement": "growth of the bladder carcinoma cell line EJ", "setting": "[1]; substance alone", "result": "not influenced"},
      {"measurement": "IC50", "setting": "[2]", "result": 9.66, "unit": "mg/L"},
      {"measurement": "cytotoxic effect", "setting": "[2]", "result": "significant cytotoxic effect"}
    ]},
    {"smiles": "Cn1nnc2c(C(N)=O)ncn2c1=O", "note": "[temozolomide, Temozolomide]", "values": [
      {"measurement": "IC50", "setting": "[1]; alone, read-out: IC50 value for temozolomide alone", "result": 1050, "unit": "mg/L"},
      {"measurement": "IC50", "setting": "[1]; in the presence of 200 μg/ml 2-methylthiazolidine-2,4-dicarboxylic acid, read-out: IC50 value of temozolomide in the presence of 2-methylthiazolidine-2,4-dicarboxylic acid", "result": 96.6, "unit": "mg/L"},
      {"measurement": "IC50", "setting": "[1]; in the presence of 1000 μg/ml N-acetylcysteine, read-out: IC50 value of temozolomide in the presence of N-acetylcysteine", "result": 903, "unit": "mg/L"}
    ]},
    {"smiles": "CC(=O)N[C@@H](CS)C(=O)O", "note": "[N-acetylcysteine]", "values": [
      {"measurement": "cytotoxic effect", "setting": "[2]", "result": "no effect"}
    ]}
  ]
}
